Laboratory results published in publication PMC8213057, “Targeting ALK2: An Open Science Approach to Developing Therapeutics for the Treatment of Diffuse Intrinsic Pontine Glioma” (Journal of Medicinal Chemistry, 2020).

Assays:
ALK1/ACVRL1 = biological target: T1, ALK1/ACVRL1 (Homo sapiens, UniProt P37023); test: 375-member kinase panel; type: biochemical; settings: Run 1, Run 2; for % enzyme activity: 1 μM
T1 construct: purchased Reaction Biology Corporation

CLK4 = CLK4 (Homo sapiens, UniProt Q9HAZ1); test: biochemical; settings: read-out: % enzyme activity, 1 μM; Run 1, Run 2
CLK4, sequence (Q9HAZ1 whole entry): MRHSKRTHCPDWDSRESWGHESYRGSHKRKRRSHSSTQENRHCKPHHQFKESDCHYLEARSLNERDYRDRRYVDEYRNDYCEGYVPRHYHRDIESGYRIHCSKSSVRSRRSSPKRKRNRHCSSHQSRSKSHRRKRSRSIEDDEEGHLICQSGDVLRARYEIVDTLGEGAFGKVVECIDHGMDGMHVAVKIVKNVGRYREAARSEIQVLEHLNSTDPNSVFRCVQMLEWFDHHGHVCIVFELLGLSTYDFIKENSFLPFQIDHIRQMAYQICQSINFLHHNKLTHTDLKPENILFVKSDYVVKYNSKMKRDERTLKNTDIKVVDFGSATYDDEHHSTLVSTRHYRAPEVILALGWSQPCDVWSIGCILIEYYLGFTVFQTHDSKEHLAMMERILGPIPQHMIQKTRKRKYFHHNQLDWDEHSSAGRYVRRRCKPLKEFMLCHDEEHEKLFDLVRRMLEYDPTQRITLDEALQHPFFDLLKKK

MLCK2/MYLK2 = MLCK2/MYLK2 (Homo sapiens, UniProt Q9H1R3); settings: 1 μM; Run 1, Run 2
MLCK2/MYLK2, sequence (Q9H1R3 whole entry): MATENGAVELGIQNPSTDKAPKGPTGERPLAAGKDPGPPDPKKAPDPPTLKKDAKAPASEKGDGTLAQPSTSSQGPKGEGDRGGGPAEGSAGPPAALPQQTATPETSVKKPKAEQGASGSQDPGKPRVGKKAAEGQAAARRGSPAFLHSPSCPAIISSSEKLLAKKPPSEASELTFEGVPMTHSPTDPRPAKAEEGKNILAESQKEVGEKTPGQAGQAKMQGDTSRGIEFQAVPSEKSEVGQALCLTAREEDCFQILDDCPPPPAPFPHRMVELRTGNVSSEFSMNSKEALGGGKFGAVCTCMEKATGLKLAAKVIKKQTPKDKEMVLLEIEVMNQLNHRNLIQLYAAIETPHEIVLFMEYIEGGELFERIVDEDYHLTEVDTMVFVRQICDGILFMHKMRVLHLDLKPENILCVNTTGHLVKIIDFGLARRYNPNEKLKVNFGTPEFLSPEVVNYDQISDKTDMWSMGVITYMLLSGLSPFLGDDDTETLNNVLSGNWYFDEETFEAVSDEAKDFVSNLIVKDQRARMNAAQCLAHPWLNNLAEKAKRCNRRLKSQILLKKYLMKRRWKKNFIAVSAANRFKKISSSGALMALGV

ULK1 = biological target: T2, ULK1 (Homo sapiens, UniProt O75385); settings: 1 μM; Run 1, Run 2
T2 sequence (O75385 1-1050): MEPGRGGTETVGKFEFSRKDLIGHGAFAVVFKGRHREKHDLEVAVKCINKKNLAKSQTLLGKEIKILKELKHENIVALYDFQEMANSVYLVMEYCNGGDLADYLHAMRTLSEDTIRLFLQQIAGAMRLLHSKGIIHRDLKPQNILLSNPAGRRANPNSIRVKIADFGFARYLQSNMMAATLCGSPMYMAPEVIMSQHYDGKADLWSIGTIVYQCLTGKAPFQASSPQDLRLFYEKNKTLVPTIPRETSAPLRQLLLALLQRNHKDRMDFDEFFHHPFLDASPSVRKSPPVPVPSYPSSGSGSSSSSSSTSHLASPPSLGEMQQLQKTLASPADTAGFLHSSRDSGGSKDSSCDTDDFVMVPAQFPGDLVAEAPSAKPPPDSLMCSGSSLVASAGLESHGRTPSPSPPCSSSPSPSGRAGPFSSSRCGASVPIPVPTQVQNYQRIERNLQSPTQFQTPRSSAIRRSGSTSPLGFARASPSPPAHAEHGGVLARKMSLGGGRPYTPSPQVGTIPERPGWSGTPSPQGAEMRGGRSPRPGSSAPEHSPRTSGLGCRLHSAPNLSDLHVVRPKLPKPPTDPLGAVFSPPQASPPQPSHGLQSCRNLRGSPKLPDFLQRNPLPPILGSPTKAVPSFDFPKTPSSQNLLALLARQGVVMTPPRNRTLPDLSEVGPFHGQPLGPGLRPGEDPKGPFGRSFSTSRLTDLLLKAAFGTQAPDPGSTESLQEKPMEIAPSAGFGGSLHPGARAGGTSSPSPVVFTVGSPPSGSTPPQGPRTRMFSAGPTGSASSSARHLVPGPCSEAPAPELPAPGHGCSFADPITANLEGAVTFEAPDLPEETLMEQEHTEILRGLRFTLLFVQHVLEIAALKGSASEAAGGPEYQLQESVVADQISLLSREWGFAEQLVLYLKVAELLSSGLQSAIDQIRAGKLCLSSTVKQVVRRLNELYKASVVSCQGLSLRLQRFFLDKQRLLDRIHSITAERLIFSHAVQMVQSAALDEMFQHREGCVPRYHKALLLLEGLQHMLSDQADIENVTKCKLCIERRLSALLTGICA

DDR2 = biological target: T3, DDR2 (Homo sapiens, UniProt Q16832); settings: 1 μM; Run 1, Run 2
T3 sequence (Q16832 22-855): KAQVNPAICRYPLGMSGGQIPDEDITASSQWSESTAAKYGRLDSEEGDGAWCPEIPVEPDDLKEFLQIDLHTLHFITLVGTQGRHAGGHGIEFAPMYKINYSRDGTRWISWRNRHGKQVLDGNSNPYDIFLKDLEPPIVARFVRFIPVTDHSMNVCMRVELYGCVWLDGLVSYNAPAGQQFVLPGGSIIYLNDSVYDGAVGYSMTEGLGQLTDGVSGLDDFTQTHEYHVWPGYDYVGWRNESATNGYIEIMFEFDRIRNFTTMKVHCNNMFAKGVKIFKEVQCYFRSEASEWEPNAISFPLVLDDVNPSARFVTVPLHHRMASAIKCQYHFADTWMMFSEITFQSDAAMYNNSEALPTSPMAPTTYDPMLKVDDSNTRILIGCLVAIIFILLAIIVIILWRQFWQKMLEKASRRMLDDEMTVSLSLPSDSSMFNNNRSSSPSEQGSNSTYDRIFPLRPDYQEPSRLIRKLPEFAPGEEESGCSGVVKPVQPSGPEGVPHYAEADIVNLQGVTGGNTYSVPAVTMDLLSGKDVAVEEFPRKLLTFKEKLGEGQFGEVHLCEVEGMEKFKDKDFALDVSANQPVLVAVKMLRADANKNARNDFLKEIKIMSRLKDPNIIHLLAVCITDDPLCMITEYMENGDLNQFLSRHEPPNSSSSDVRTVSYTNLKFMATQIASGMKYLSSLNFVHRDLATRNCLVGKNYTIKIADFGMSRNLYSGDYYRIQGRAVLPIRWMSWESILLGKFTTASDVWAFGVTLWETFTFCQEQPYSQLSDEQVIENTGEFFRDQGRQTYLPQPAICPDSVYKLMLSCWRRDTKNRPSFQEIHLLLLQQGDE

SNRK = biological target: T4, SNRK (Homo sapiens, UniProt Q9NRH2); test: biochemical; settings: read-out: % enzyme activity, 1 μM; Run 1, Run 2
T4 sequence (Q9NRH2 1-765): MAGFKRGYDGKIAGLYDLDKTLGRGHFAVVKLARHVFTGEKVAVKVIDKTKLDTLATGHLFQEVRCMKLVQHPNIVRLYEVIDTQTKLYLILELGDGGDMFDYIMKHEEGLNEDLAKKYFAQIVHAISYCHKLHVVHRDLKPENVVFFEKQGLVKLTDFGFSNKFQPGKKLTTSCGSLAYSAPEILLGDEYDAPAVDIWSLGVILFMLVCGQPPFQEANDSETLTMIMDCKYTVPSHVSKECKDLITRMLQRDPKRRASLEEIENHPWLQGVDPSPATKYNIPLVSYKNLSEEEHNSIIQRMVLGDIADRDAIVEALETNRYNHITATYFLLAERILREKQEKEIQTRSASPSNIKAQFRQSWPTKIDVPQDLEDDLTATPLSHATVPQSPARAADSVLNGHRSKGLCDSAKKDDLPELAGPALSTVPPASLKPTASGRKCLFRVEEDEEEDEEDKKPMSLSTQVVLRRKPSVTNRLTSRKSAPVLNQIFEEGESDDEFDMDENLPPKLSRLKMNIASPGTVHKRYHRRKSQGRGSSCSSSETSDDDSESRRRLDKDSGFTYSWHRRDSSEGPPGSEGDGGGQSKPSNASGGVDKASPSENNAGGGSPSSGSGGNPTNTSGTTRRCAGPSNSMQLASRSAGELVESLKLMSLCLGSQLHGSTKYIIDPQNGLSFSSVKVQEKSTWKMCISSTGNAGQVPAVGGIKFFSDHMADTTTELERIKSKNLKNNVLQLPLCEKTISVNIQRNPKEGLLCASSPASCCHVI

PLK1 = PLK1 (Homo sapiens, UniProt P53350); test: biochemical; settings: read-out: % enzyme activity, 1 μM; Run 1, Run 2
PLK1, sequence (P53350 whole entry): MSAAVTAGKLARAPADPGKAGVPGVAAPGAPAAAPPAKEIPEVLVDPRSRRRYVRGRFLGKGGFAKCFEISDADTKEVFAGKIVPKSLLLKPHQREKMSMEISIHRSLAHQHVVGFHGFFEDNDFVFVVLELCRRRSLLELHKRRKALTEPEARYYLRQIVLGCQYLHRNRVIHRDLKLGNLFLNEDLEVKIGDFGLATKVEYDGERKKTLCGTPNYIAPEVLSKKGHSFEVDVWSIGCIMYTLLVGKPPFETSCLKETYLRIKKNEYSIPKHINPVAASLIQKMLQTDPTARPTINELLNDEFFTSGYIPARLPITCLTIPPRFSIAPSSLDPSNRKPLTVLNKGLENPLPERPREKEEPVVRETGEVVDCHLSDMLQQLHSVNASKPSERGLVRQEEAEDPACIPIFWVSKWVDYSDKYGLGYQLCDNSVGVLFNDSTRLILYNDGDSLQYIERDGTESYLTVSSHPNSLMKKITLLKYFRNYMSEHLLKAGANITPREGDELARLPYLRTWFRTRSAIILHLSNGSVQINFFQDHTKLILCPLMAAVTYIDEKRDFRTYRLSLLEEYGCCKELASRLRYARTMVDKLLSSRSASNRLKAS

T1 sequence (P37023 22-503): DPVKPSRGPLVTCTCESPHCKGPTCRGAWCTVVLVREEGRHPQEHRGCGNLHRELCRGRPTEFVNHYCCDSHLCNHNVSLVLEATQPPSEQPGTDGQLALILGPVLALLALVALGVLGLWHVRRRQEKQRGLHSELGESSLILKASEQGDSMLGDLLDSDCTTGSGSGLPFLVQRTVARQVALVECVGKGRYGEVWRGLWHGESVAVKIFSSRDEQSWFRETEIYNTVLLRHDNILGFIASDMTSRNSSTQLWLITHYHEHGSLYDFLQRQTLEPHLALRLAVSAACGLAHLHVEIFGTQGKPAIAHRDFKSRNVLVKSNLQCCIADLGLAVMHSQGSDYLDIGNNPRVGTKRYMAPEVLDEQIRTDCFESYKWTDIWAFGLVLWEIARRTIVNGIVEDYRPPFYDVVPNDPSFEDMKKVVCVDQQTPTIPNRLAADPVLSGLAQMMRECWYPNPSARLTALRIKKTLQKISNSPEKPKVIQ

Structure (SMILES) | % enzyme activity (ALK1/ACVRL1) [%] | remaining activity at 1 µM (CLK4) [%] | % enzyme activity (MLCK2/MYLK2) [%] | % enzyme activity (ULK1) [%] | % enzyme activity (DDR2) [%] | remaining activity at 1 µM (SNRK) [%] | remaining activity at 1 µM (PLK1) [%] | remaining activity at 1 µM (ALK1/ACVRL1; read-out: % enzyme activity, 1 μM) [%]
COc1cc(-c2cncc(-c3ccc(N4CCN(C)CC4)cc3)c2C)cc(F)c1C(N)=O [Compound 26a, 2-Fluoro-6-methoxy-4-(4-methyl-5-(4-(4-methylpiperazin-1-yl)phenyl)pyridin-3-yl)benzamide] | 2.65 | 88.9 | 66.59 | 83.53 | 96.68 | 105 | 92.4 | –
COc1cc(-c2cncc(-c3ccc(N4C[C@@H](C)N(C)[C@@H](C)C4)cc3)c2C)cc(F)c1C(N)=O [Compound 26c, 2-Fluoro-6-methoxy-4-(4-methyl-5-(4-((3R,5S)-3,4,5-trimethylpiperazin-1-yl)phenyl)pyridin-3-yl)benzamide] | 4.38 | 92.6 | 82.74 | 89.24 | 92.27 | 100 | 92.7 | 4.67
